Experimental data: ChEMBL document CHEMBL5726429, “Inhibitors of lysine specific demethylase-1” (2017)

Target: Lysine-specific histone demethylase 1A (Homo sapiens, UniProt O60341)
Assay: In Vitro Enzyme Inhibition Assay: The enzymatic assay of LSD1 activity is based on Time Resolved-Fluorescence Resonance Energy Transfer (TR-FRET) detection. The inhibitory properties of compounds to LSD1 were determined in 384-well plate format under the following reaction conditions: 0.1-0.5 nM LSD1, 50 nM H3K4mel-biotin labeled peptide (Anaspec cat # 64355), 2 μM FAD in assay buffer of 50 mM …

## Cn1c(N2CCC(N)CC2)nc(-c2ccc(C#N)c(F)c2)c(Cl)c1=O
  IC50: < 100 nM
